Results: PMC9486541, “Design, synthesis and cytotoxic evaluation of novel betulonic acid-diazine derivatives as potential antitumor agents” (Frontiers in Chemistry, 2022)

How the values were obtained:
MCF-7 = assay: MTT assay, MCF-7 cells; type: cell-based, human; conditions: Homo sapiens, MCF7, 72 h incubation, read-out: Half maximal inhibitory concentration (IC50) values, MCF-7
Text: (§1) The human hepatocellular carcinoma cell line (HepG2), human hepatocellular carcinoma cell line (Bel-7402), human cervical cancer cell line (Hela), human breast adenocarcinoma cell line (MCF-7) and Madin-Darby canine kidney cell line (MDCK) were obtained from the Chinese Academy of Medical Sciences and Peking Union Medical College. Cultures were maintained as monolayer in RPMI-1640/DMEM supplemented with 10% (v/v) fetal bovine serum (FBS) and 1% (v/v) penicillin/streptomycin (Thermo Technologies, New York, NY, United States) under a humidified atmosphere containing 5% CO2 at 37°C. The BoA derivatives and positive control drugs (BoA and DDP) under study were dissolved in DMSO (Sigma, St. Louis, MO, United States) and added at required concentrations to the cell culture. Cells incubated without the preparations served as the control.
(§2) The antitumor activity was assessed by MTT assay, as previously reported ([Fang et al., 2018]). Each tested compound and positive control drugs were dissolved in DMSO and diluted with the medium to the test concentrations, and the final concentration of DMSO in the culture medium was controlled at less than 0.5% (v/v). Briefly, cells were cultured at 37°C and dispersed in replicates in 96-well plates with HepG2, Bel-7402, HeLa, MCF-7 and MDCK for 24 h. Fresh medium along with compounds (BoAA-BoAE, BoA2A-BoA2G, BoA3A-BoA3G, BoA4A-BoA4G) at different concentrations was then added to individual wells and incubated for 72 h, with BoA and DDP as the positive control. Experiments on FXR expression were separated into three groups: Control (PBS), BoA2C (8 μM), and BoA2C (8 μM) + DY268 (10 μM) ([Giordano et al., 2016]), with three repeating wells in each. In separate wells, BoA2C and DY268 were introduced and cultured for 72 h. After 72 h, the cell was incubated with MTT solution (0.5 mg/ml) for an additional 4 h at 37°C. The produced formazan crystals were solubilized with DMSO, and the optical density of solution was measured at 570 nm using a plate reader (BIORAD 550 spectrophotometer, Bio-rad Life Science Development Ltd., Beijing, China). Wells without drugs were used to be blanks. The IC50 values were defined as the concentration of compounds that produced a 50% proliferation inhibition of surviving cells and calculated using the Graph Pad Prism 5. The inhibitory rate was calculated in the following Equation 1, where OD is the optical density: % inhibition=[1−(OD Sample group−OD Blank group)/(OD Control group−OD Blank group)]×100% (1)

HepG2 = assay: MTT assay, HepG2 cells; type: cell-based, human; conditions: Homo sapiens, HepG2, 72 h incubation, read-out: Half maximal inhibitory concentration (IC50) values, HepG2
Text: as §1, §2

What does the source list for `C=C(C)[C@@H]1CC[C@]2(C(=O)OCCOC(=O)c3cnc(C)cn3)CC[C@]3(C)[C@H](CC[C@@H]4[C@@]5(C)CCC(=O)C(C)(C)[C@@H]5CC[C@]43C)[C@@H]12` [BoA2C, (5-Methylpyrazin-2-acyloxy)-ethyl-3-oxolup-20(29)-en-28-oate]?
IC50 (MCF-7): 3.39 ± 0.07 µM; IC50 (HepG2): 7.46 ± 1.43 µM
